“And” between values parts separate entries of the source, which are not always exact repeats. Equal values may be shown once. Read-outs that look alike come from different tables or passages of the source.
Target: T1, Type I 5α-reductase (Homo sapiens, UniProt P18405)
T1 construct: Scalp punch biopsies from graft recipient sites were obtained; from tissue; host or cells: human scalp skin (punch biopsies from hair transplant procedures); 100,000 x g pellet of the homogenate
T1 sequence (P18405 1-259): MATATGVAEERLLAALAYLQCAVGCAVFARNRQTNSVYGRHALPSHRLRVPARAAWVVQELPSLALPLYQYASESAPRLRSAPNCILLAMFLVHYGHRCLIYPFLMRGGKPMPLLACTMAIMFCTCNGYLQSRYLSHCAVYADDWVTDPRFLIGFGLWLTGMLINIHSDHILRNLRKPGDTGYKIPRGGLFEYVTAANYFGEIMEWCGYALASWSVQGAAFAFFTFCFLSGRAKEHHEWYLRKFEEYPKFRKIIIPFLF
Test: Human Type I steroid 5α-reductase homogenate assay (conversion of [3H]-testosterone to [3H]-DHT and other 5α-reduced metabolites)
Assay type: biochemical
Experimental: Methodology of Human Type I Steroid 5α-Reductase Assays
Preparation of Type I 5α-Reductase from Human Scalp: Scalp punch biopsies from graft recipient sites were obtained, following the proper Informed Consent and Institutional Review Board guidelines, from human hair transplant procedures immediately after surgery and were frozen on dry ice and stored at -80°C. Approximately 60-75 punches from one surgical procedure were used to generate an enzyme preparation. The subcutaneous tissue was cut away and discarded. The skin was frozen with liquid nitrogen and pulverized to powder. The powder was homogenized in 30 mL of ice-cold buffer (20 mM Tris-HCl, pH 7.5) using a Brinkmann Polytron (Westbury, NY) with a PTA 10-S probe and a setting of 7. The homogenization procedure consisted of four 15 second pulses. Connective tissue was cleared from the probe with forceps between pulses. The homogenate was then filtered through cheese cloth and the filtrate centrifuged at 100,000 x g for one hour in a Beckman L8-60M ultracentrifuge. The pellet was resuspended by homogenization with a Dounce homogenizer using the same buffer solution. An aliquot was taken for protein determination by the Lowry method, Lowry, et al., Protein Measurement with the Folin Phenol Reagent, J. Biol. Chem., 193, 265-75 (1951). Aliquots of the enzyme preparation were stored at -80° until use. Human 5α-Reductase Homogenate Assay: This enzyme assay is based on the conversion of [^3H]-testosterone to [^3H]-5α -dihydrotestosterone (DHT) and other 5α-reduced metabolites. […] In a total volume of 1.0 mL, the Type I assay contained 2.6 µCi [^3H]-testosterone (50 nM), 500 µM of reduced nicotine adenine dinucleotide phosphate, 100 mM Tris-HCl, pH 7.5, (in Type II assays, 40 mM sodium acetate at pH 5.5 is used instead of Tris-HCl) and test compounds as indicated. Test compounds were added in 20 µL of dimethylsulfoxide (20 µL of dimethylsulfoxide was added to blanks and controls). The reaction was initiated by the addition of 0.5 mg of Type I 5α-reductase. The reaction mixture was incubated at 25° for 180 min, and terminated by the addition of 1 mL ice-cold stopping solution. The stopping solution contained 40 µM each of non-radioactive testosterone, DHT, androstenedione, androstanedione, androsterone, androstan-3β17β- diol, and androstan-3α,17β-diol. The samples were prepared for high performance liquid chromatography by solid phase extraction. Disposable solid matrix extraction columns (C-18 reversed phase, 6 mL, 500 mg; Bond Elut™ from Analytichem International; Harbor City, CA) were conditioned by washing with 5 mL of methanol followed by 5 mL of deionized water. The reaction mixtures were then applied to the columns. The columns were subsequently washed with 5 mL of acetone:water (1:4), followed by 0.3 mL of methanol. The samples were then eluted with 3 mL of methanol and collected in 20 mL scintillation vials. Three mL of water was then added to each scintillation vial. The solutions were then transferred to tubes and centrifuged for 30 min at 1000 x g to remove any particulate material before chromatography. The [^3H]-testosterone substrate and its metabolites were separated by chromatography using a C-18 reversed phase column (Beckman Ultrasphere 5µm spherical 80A pore, part no. 235329, 4.6 mm i.d. x […]) with an isocratic mobile phase (46 water: 46 methanol: 8 tetrahydrofuran by volume). The column temperature was maintained at 35° and the flow rate was 1.5 mL/min. A 400 µL aliquot was injected onto the column and radioactivity was determined using a Beckman 171 in-line flow radioisotope detector in conjunction with Rainin Dynamax™ software and a Macintosh computer. The flow rate of the Atomflow™ scintillation fluid was 4.5 mL / min.

[1] = 0.3 µM concentration of compound, compared to control reaction mixtures, read-out: percent inhibition of Type I 5AR
[2] = 0.3 µM concentration of compound, compared to control reaction mixtures, 0.3 µM
[3] = 0.3 µM concentration of compound, compared to control reaction mixtures

C[C@]12CCC(=O)N[C@@H]1CCc1cc(Sc3ccccc3Cl)ccc12 (single isomer, unassigned) [Example 7]
inhibition at 0.3 µM [1]: 49%

C[C@]12CCC(=O)N[C@@H]1CCc1cc(-c3cnc4ccccc4c3)ccc12 (single isomer, unassigned) [Example 45]
inhibition at 0.3 µM [1]: 11%

CN1C(=O)CC[C@]2(C)c3ccc(-c4ccc5c(c4)CCC5O)cc3CC[C@@H]12 (single isomer, unassigned; (+)) [Example 245]
inhibition at 0.3 µM [1]: 54%

CN1C(=O)CC[C@]2(C)c3ccc(-c4ccc(Cl)cc4)cc3CC[C@@H]12 [Example 50, (+)-(4aR)-(10bR)-4-methyl-8-(4-chlorophenyl)-10b-methyl-1,2,3,4,4a,5,6,10b-octahydrobenzo[f]quinolin-3-one]
percent inhibition of Type I 5AR [2]: 94%

CN1C(=O)CC[C@]2(C)c3ccc(-c4cccc5ccccc45)cc3CC[C@@H]12 [Example 53, (+)-(4aR)-(10bR)-4-methyl-8-(1-naphthyl)-10b-methyl-1,2,3,4,4a,5,6,10b-octahydrobenzo[f]quinolin-3-one]
percent inhibition of Type I 5AR [2]: 100% and 66%

CN1C(=O)CC[C@]2(C)c3ccc(-c4ccc(NS(C)(=O)=O)cc4)cc3CC[C@@H]12 [Example 123, (+)-(4aR)-(10bR)-4-methyl-8-(4-methylsulfonamidophenyl)-10b-methyl-1,2,3,4,4a,5,6,10b-octahydrobenzo[f]quinolin-3-one]
inhibition at 0.3 µM [1]: 10%

C[C@]12C=CC(=O)N[C@@H]1CCc1cc(-c3cc4ccccc4cn3)ccc12 [Example 142, (+)-(4aR)-(10bR)-8-(3-isoquinolinyl)-10b-methyl-3,4,4a,5,6,10b-hexahydrobenzo[f]quinolin-3-one]
inhibition at 0.3 µM [1]: 22%

Cc1cccc2sc(Sc3ccc4c(c3)CC[C@H]3N(C)C(=O)CC[C@]43C)nc12 [Example 159, (+)-(4aR)-(10bR)-4-methyl-8-(4-methyl-2-benzothiazolylthio)-10b-methyl-1,2,3,4,4a,5,6,10b-octahydrobenzo[f]quinolin-3-one]
percent inhibition of Type I 5AR [3]: 87, 87%
inhibition at 0.3 µM [1]: 87%

CN1C(=O)CC[C@]2(C)c3ccc(Sc4nc5c(ccc6ccccc65)s4)cc3CC[C@@H]12 [Example 163, (+)-(4aR)-(10bR)-4-methyl-8-(2-naphtho〈1,2-d〉-thiazolylthio)-10b-methyl-1,2,3,4,4a 5,6,10b-octahydrobenzo[f]-quinolin-3-one]
percent inhibition of Type I 5AR [3]: 80%

CN1C(=O)CC[C@]2(C)c3ccc(Sc4nc5c(Cl)cccc5s4)cc3CC[C@@H]12 [Example 164, (+)-(4aR)-(10bR)-4-methyl-8-(4-chloro-2-benzothiazolylthio)-10b-methyl-1,2,3,4,4a,5,6,10b-octahydrobenzo[f]quinolin-3-one]
percent inhibition of Type I 5AR [2]: 87%

C[C@]12CCC(=O)N[C@@H]1CCc1cc(-c3cnc4ccccc4c3)ccc12 [Example 196, (+)-(4aR)-(10bR)-8-(3-quinolinyl)-10b-methyl-1,2,3,4,4a,-5,6,10b-octahydrobenzo[f]quinolin-3-one]
percent inhibition of Type I 5AR [3]: 11%

CN1C(=O)CC[C@]2(C)c3ccc(-c4cc(F)c(F)c(F)c4)cc3CC[C@@H]12 [Example 206, (+)-(4aR)-(10bR)-4-methyl-8-(3,4,5-trifluorophenyl)-10b-methyl-1,2,3,4,4a,5,6,10b-octahydrobenzo[f]quinolin-3-one]
percent inhibition of Type I 5AR [2]: 100%

CN1C(=O)CC[C@]2(C)c3ccc(-c4ccc(-c5ccc(NC(=O)C(C)(C)C)s5)cc4)cc3CC[C@@H]12 [Example 222, (+)-(4aR)-(10bR)-4-methyl-8-(4-[(2-t-butylcarbonylamino]-5-thienyl]phenyl)-10b-methyl-1,2,3,4,4a,5,6,10b-octahydrobenzo[f]quinolin-3-one]
percent inhibition of Type I 5AR [3]: 86%

CN1C(=O)CC[C@]2(C)c3ccc(C=Cc4ccccc4)cc3CC[C@@H]12 [Example 279, (4aR)-(10bR)-4,10b-dimethyl-8-(2-phenylethenyl)-1,2,3,4,4a,5,6,10b-octahydrobenzo[f]quinolin-3-one]
inhibition at 0.3 µM (read-out: percent inhibition of Type I 5AR, 0.3 µM concentration of compound, compared to control reaction mixtures): 85%

CN1C(=O)CC[C@]2(C)c3ccc(CCc4ccccc4)cc3CC[C@@H]12 [Example 280, (4aR)-(10bR)-4,10b-dimethyl-8-(2-phenylethyl)-1,2,3,4,4a,5,6,10b-octahydrobenzo[f]quinolin-3-one]
percent inhibition of Type I 5AR [2]: 100%

CN1C(=O)CC[C@]2(C)c3ccc(/C=C/c4cncc5ccccc45)cc3CC[C@@H]12 [Example 281, (4aR)-(10bR)-4,10b-dimethyl-8-(2-[4-isoquinolinyl]ethenyl)-1,2,3,4,4a,5,6,10b-octahydrobenzo[f]quinolin-3-one]
inhibition at 0.3 µM [1]: 75%

CN1C(=O)CC[C@]2(C)c3ccc(/C=C/c4cnc5ccccc5c4)cc3CC[C@@H]12 [Example 282, (4aR)-(10bR)-4,10b-dimethyl-8-(2-[3-quinolinyl]ethenyl)-1,2,3,4,4a,5,6,10b-octahydrobenzo[f]quinolin-3-one]
inhibition at 0.3 µM [1]: 75%

CN1C(=O)CC[C@]2(C)c3ccc(/C=C/c4ccc5ccccc5n4)cc3CC[C@@H]12 [Example 283, (4aR)-(10bR)-4,10b-dimethyl-8-(2-[2-quinolinyl]ethenyl)-1,2,3,4,4a,5,6,10b-octahydrobenzo[f]quinolin-3-one]
inhibition at 0.3 µM [1]: 87%

CN1C(=O)CC[C@]2(C)c3ccc(C=Cc4ccccc4)cc3CC[C@@H]12 [Example 285, (4aR)-(10bR)-4,10b-dimethyl-8-(2-phenylethenyl)-1,2,3,4,4a,5,6,10b-octahydrobenzo[f]quinolin-3-one]
percent inhibition of Type I 5AR [2]: 93%

(+)-(4aR)-(10bR)-4-methyl-8-(2-[6-benzyloxy]naphthyl)-10b-methyl-1,2,3,4,4a,5,6,10b-octahydrobenzo[f]quinolin-3-one [Example 62]
percent inhibition of Type I 5AR [3]: 45%

(+)-(4aR)-(10bR)-4-methyl-8-(2aR,4S-1-benzoyl-4-amino-2,2a,3,4-tetrahydrobenz[cd]-1H-indol-7-yl)-10b-methyl-1,2,3,4,4a,5,6,10b-octahydrobenzo[f]quinolin-3-one [Example 226]
percent inhibition of Type I 5AR [3]: 16%

(+)-(4aR)-(10bR)-4-methyl-8-(2aR,4S-1-benzoyl-4-dipropylamino-2,2a,3,4-tetrahydrobenz[cd]-1H-indol-7-yl)-10b-methyl-1,2,3,4,4a,5,6,10b-octahydrobenzo[f]quinolin-3-one [Example 225]
percent inhibition of Type I 5AR [3]: 47%

(+)-(4aR)-(10bR)-4-methyl-8-(3-[1-benzyl-4-piperidinylcarboxamidolphenyl)-10b-methyl-1,2,3,4,4a,5,6,10b-octahydrobenzo[f]quinolin-3-one [Example 209]
percent inhibition of Type I 5AR [3]: 24%

(+)-(4aR)-(10bR)-4-methyl-8-(4-fluoro-3-trifluoromethylphenyl)-10b-methyl-1,2,3,4,4a,5,6,10b-octahydrobenzo[f]quinolin-3-one [Example 46]
percent inhibition of Type I 5AR [3]: 3%

Source: patent EP0733365A2, “Use of benzoquinolin-3-ones for the treatment and prevention of prostatic cancer” (priority 1995, dated 1996)
